From US20130303373A1, “USE OF A COMPOSITION FOR THE INCREASE OF CROP YIELD” (GLOBACHEM, priority 2010, published 2013)

Legend:
[1] = test system: mature apple trees of the variety Jonagold, (mutant Jonagored); test: Yield increase with apple (fruit set and fruit size after spraying); assay type: in vivo
Method: This experiment was performed on mature apple trees of the variety Jonagold, (mutant Jonagored). The sprayings were performed with an atomizer, each time applying an amount of 300 liter of water per hectare.
S-abscisic acid (ABA) was applied alone as well as in combination with glutamine. The applications were started around the end of flowering and were repeated every 10 to 14 days. ABA was first applied in two consecutive treatments, each time using a concentration of 3.3 ppm wt, and thus in a dosing of 1.0 g/ha. The composition with glutamine was applied until the end of the growing season, and with a concentration of 50 ppm wt, and thus in a dosing of 15 g/ha. ABA was also in this test applied only twice, on April 24 and May 7. The applications of glutamine were started around the end of flowering and were repeated every 7 to 14 days, depending on the weather conditions. In total there were 7 treatments, more precisely on April 24, May 7, May 14, May 20, June 9, June 16 and June 24. Immediately after the treatments, on June 25, also the average fruit diameter was determined.

[2] = test system: winter wheat; test: Yield increase with wheat (ear and grain parameters); assay type: in vivo
Method: This experiment was performed on winter wheat. ABA was applied to the winter wheat in two different doses, respectively 2 and 4 gram/hectare. The dose of 2 gram was repeated in combination with 5 g/ha of histidine.
The length of the ears (expressed in mm), the number of filled spikelets, the average number of grains counted per 50 ears, and as a quality parameter also the kernel weight of 1000 […] (“1000 kernel wt”) were determined.

CC1=CC(=O)CC(C)(C)[C@@]1(O)/C=C/C(C)=C/C(=O)O [ABA, S-abscisic acid]
Fruit diameter (mm) on June 25 ([1]; ABA 2 treatments at 1.0 g/ha, glutamine 7 treatments at 15 g/ha, measured June 25): 43.8 mm | Nr of fruits per cluster ([1]; ABA 2 treatments at 3.3 ppm wt (1.0 g/ha), glutamine 7 treatments at 50 ppm wt (15 g/ha), 300 l water/ha): 0.80 | 1000 kernel wt (gram) ([2]; ABA 2 g/ha): 43.6 gram | Ear Length (mm) ([2]; ABA 2 g/ha): 75 mm | Nr. filled spikelets ([2]; ABA 2 g/ha): 9.9 | Nr. grains/50 ears ([2]; ABA 2 g/ha): 72.4 | 1000 kernel wt (gram) ([2]; ABA 4 g/ha): 44.8 gram | Ear Length (mm) ([2]; ABA 4 g/ha): 78 mm | Nr. filled spikelets ([2]; ABA 4 g/ha): 10.2 | Nr. grains/50 ears ([2]; ABA 4 g/ha): 84.7
